Assay results from article PMC9343791, “Evaluation of Herb–Drug Interaction Between Danshen and Rivaroxaban in Rat and Human Liver Microsomes” (Frontiers in Pharmacology, 2022).

Assays:
[1] = target: T1, CYP3A2 (Rattus norvegicus, UniProt P05183); assay: midazolam probe-substrate inhibition in pooled rat liver microsomes, LC-MS/MS; format: biochemical
T1 sequence (P05183 1-504): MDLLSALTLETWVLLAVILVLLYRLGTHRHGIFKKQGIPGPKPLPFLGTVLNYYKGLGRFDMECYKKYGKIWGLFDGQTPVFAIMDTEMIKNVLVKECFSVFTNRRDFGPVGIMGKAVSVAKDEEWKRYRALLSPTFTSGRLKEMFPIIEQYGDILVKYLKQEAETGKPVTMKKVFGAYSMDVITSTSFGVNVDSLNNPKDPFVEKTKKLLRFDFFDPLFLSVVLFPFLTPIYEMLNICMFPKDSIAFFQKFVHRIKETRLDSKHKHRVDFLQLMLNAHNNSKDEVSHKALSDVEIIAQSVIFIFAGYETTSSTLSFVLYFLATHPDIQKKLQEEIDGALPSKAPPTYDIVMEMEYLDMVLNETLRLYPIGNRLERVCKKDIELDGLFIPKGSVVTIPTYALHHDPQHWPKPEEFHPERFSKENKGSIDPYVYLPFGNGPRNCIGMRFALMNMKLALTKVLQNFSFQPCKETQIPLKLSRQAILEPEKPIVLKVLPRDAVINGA

[2] = target: T2, CYP2J3 (Rattus norvegicus, UniProt P51590); assay: astemizole probe-substrate inhibition in pooled rat liver microsomes, LC-MS/MS; format: biochemical
T2 sequence (P51590 1-502): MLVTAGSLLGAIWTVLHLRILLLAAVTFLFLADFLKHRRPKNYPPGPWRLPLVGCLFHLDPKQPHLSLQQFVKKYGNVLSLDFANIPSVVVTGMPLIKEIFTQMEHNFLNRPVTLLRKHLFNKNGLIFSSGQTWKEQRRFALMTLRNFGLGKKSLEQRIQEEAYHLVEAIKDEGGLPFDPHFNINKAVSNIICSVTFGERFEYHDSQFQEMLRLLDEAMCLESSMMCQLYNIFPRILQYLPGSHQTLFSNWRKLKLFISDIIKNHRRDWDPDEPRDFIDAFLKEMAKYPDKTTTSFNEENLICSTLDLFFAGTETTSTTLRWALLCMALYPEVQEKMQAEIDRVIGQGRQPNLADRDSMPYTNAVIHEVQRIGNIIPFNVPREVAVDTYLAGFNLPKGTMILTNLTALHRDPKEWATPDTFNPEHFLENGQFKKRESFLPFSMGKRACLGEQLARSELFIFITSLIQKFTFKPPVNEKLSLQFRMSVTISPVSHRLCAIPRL

In the case of `Cc1cccc2c3c(ccc12)C1=C(C(=O)C3=O)[C@@H](C)CO1` [dihydrotanshinone I], the IC50 [1] is reported as 13.8 µM and the IC50 [2] is reported as 6.39 µM.
